Data published in patent publication US9791447B2, “Methods of identifying SENP1 inhibitors” (City of Hope, priority 2013, dated 2017).
Each block holds one molecule with its values, some of them ahead of it.

How the values were obtained:
[1] = test system: HeLa cells; assay: Cellular SENP inhibition: SUMOylated proteins in HeLa cells by Western blot; settings: increasing concentrations, 48 hours
[2] = biological target: T1, SENP1 (Homo sapiens (Human), UniProt Q9P0U3); assay: SUMO cleavage assay (gel-based), SENP1, SUMO-1 precursor YSE substrate; type: biochemical; settings: cleavage of SUMO-1 precursor (YSE), read-out: IC50 (μM)-SUMO1 SENP1
T1 sequence (Q9P0U3 419-644): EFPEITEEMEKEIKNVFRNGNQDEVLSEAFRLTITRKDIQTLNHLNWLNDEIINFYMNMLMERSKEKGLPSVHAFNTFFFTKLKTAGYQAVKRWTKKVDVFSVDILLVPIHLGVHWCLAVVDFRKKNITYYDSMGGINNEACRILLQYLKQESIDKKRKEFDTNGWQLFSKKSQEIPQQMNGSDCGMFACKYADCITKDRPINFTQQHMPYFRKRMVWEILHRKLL

[3] = biological target: T2, SENP2 (Homo sapiens (Human), UniProt Q9HC62); assay: SUMO cleavage assay (gel-based), SENP2, SUMO-1 precursor YSE substrate; type: biochemical; settings: cleavage of SUMO-1 precursor (YSE), read-out: IC50 (μM)-SUMO1 SENP2
T2 sequence (Q9HC62 364-589): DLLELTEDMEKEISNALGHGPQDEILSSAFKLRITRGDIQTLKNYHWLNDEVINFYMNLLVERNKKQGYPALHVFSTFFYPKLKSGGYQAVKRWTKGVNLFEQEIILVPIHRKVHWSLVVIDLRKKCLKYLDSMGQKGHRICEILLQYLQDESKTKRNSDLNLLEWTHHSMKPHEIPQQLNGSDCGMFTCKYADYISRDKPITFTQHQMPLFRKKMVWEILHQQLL

[4] = biological target: T1, SENP1; assay: SUMO cleavage assay (gel-based), SENP1, SUMO-2 precursor YSE substrate; type: biochemical
[5] = biological target: T2, SENP2; assay: SUMO cleavage assay (gel-based), SENP2, SUMO-2 precursor YSE substrate; type: biochemical; settings: cleavage of SUMO-2 precursor (YSE), read-out: IC50 (μM)-SUMO2 SENP2
[6] = biological target: T1, SENP1; assay: DUB-Glo bioluminescent assay, SENP1; type: biochemical; settings: DUB-Glo substrate
Experimental: (§1) In 96-well plates, SENPs (50-200 nM) were pre-treated with increasing concentrations of each compound, after which DUB-Glo (40 μM final concentration; Promega, Madison, Wis.) was added as substrate. Experiments were performed in triplicate. The amount of cleaved product is proportional to the relative light unit (RLU), which is bioluminescence produced by luciferase catalyzed reaction of luciferin that was produced by SENP cleavage of DUB-Glo.
(§2) To determine whether other SENPs can be inhibited by this family of inhibitors, a distant SENP member, SENP7, was tested in parallel with SENP1 and SENP2 using a pentapeptide substrate that contained the Gly-Gly motif and luciferin, known as DUB-Glo (Promega, Madison, Wis.). Cleavage of luciferin by a SENP can be detected by a coupled bioluminescent assay using luciferase. The bioluminescent reporter was chosen instead of a fluorescent reporter to avoid interference by the compounds during detection.
(§3) DUB-Glo Assay. The luciferase substrate assay (DUB-Glo, Promega, Madison, Wis.) was performed according to the manufacturer's instructions. […] Luciferase output was recorded 30 min after addition of the luciferase substrate. […]

[7] = biological target: T2, SENP2; assay: DUB-Glo bioluminescent assay, SENP2; type: biochemical; settings: DUB-Glo substrate
Experimental: as §1, §2, §3

[8] = biological target: SENP7 (Homo sapiens (Human), UniProt Q9BQF6); assay: DUB-Glo bioluminescent assay, SENP7; type: biochemical; settings: DUB-Glo substrate
Sequence of SENP7 (Q9BQF6 760-1050): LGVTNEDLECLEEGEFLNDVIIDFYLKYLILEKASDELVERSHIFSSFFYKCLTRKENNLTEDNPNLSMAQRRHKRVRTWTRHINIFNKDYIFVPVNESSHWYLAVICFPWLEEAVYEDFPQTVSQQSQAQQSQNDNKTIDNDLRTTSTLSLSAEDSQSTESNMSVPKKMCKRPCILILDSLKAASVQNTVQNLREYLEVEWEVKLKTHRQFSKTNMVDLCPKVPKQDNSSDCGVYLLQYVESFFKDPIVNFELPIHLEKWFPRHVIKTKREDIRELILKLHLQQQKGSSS
Experimental: as §1, §2
DUB-Glo Assay. The luciferase substrate assay (DUB-Glo, Promega, Madison, Wis.) was performed according to the manufacturer's instructions. Briefly, SENPs (final concentration 50-100 nM) in Tris buffer (50 mM Tris, pH 8.0, 100 mM NaCl, 10 mM DTT) were pre-incubated (10 min, room temperature) with increasing concentrations of inhibitor (0-60 μM final concentration) followed by addition of the luciferase substrate. Luciferase output was recorded 30 min after addition of the luciferase substrate. Values are the averages of experiments performed in triplicate.

Compound: Nc1ccc2ccccc2c1/N=N/c1ccc(/C=C/c2ccc(/N=N/c3c(N)ccc4ccccc34)cc2S(=O)(=O)O)c(S(=O)(=O)O)c1 [SPI-01]
accumulation of SUMO-1 conjugates [1]: less significant effects on the accumulation of SUMO-1 conjugates | accumulation of SUMO-2/3 conjugates [1]: SUMO-2/3 conjugates accumulated in cells

Compound: Cc1cc(N)ccc1/N=N/c1cc(S(=O)(=O)O)c2cccc(S(=O)(=O)O)c2c1.[Na+].[Na+] [SPI-07]
IC50 [2]: > 60 µM | IC50 [3]: > 60 µM | IC50 ([4]; cleavage of SUMO-2 precursor (YSE), gel-based, read-out: IC50 (μM)-SUMO2 SENP1): 17.5 ± 4.9 µM | potency for inhibiting SENP1 compared with SENP2 ([4]; cleavage of the SUMO-2 precursor): more potent for inhibiting SENP1 than SENP2 | IC50 [5]: 28.1 ± 9.2 µM | IC50 [6]: > 60 µM | IC50 [7]: > 60 µM | IC50 [8]: 1.9 ± 2.2 µM

IC50 [8]: 2.8 ± 1.6 µM
Compound: Nc1c(/N=N/c2ccccc2)cc(S(=O)(=O)O)c2ccccc12 [SPI-08]

IC50 [8]: 1.9 ± 2.1 µM
Compound: Nc1ccc2cc(S(=O)(=O)O)cc(S(=O)(=O)O)c2c1/N=N/c1ccc(S(=O)(=O)O)cc1 [SPI-09]
